# Calls of active or inactive are those of the source.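 How the source made its calls: active means maximal inhibition of USP17 at or above 30% in the confirmation dose-response, a value not among the printed readouts; inactive means the rest.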
# Target: Ubiquitin carboxyl-terminal hydrolase 17-like protein 5 (Homo sapiens) (UniProt A8MUK1)
# Assay: ubiquitin-specific protease 17 inhibitors, concentration series, biochemical, verification of primary actives (AID 1645864)
# Conditions: purified USP17, ubiquitin-rhodamine cleavage fluorescence, 3 h
# Sequence of Ubiquitin carboxyl-terminal hydrolase 17-like protein 5 (Homo sapiens) (A8MUK1 whole entry, looked up): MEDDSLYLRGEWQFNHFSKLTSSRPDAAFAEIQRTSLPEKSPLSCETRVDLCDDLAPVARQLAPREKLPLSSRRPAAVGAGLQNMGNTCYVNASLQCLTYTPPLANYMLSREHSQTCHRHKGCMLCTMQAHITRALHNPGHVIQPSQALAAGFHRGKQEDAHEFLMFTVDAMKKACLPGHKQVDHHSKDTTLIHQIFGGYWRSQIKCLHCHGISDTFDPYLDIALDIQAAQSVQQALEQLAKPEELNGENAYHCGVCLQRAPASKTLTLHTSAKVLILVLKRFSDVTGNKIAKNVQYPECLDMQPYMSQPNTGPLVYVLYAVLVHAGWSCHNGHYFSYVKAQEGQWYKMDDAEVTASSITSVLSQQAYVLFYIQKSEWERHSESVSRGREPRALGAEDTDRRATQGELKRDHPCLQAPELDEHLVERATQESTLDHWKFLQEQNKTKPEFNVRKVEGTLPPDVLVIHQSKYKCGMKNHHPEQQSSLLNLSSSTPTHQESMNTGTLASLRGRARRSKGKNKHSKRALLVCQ
row,Structure (SMILES),IC50
1,O=C(c1cccnc1)N1CCC2(CC1)CC1(CO2)Nc2ccccc2-n2cccc21 (stereo not drawn),21.4 µM
2,O=C(CSc1ccc(-c2cccc([N+](=O)[O-])c2)nn1)Nc1cccc(F)c1,2.7 µM
3,O=C1CC(O)C(O)c2cccc(O)c21 (stereo not drawn),9.86 µM
4,Cc1ccc2c(=O)c3c([nH]c2c1C)CCN(CC(=O)NCc1ccccc1)C3,> 50 µM (inactive)
5,O=C(Nc1ccc(F)cc1F)NC1CCN(c2ccccc2)C1=O (stereo not drawn),18.3 µM
6,COc1cc(O)c2c(c1)C1=CC(=O)C(O)=C[C@]1(C)OC2=O,49.4 µM
7,COc1cccc(NC(=O)Nc2ccc(CCc3nc4ccccc4[nH]3)cc2)c1,49.2 µM
8,C=C[C@]1(C)C=C2C(=O)[C@]3(O)OC(=O)[C@@]4(CCCC(C)(C)[C@H]34)[C@@]2(O)CC1,29.7 µM
9,Cc1cc(=O)n(CC(=O)NCc2ccccc2F)c2c1c(C)nn2-c1ccccc1,24.2 µM
10,Cc1cc(C(=O)Nc2ccc3c(c2)OCCO3)no1,> 50 µM (inactive)
11,CC1(C)Cc2c(sc3nc(Cc4ccccc4)nc(SCC(=O)Nc4ccccc4)c23)CO1,2.35 µM
12,O=C(Cn1cncc(C(=O)NC2CCCC2)c1=O)Nc1cccc(F)c1,19 µM
13,Cc1noc(C)c1S(=O)(=O)Nc1ccc(C(=O)Nc2ccc3c(c2)OCCO3)cc1,> 50 µM (inactive)
14,COc1cc(=O)c(C(=O)Nc2ccc(C#N)cc2)nn1-c1cccc(F)c1,28.8 µM
15,O=C(Nc1ccc(-c2cn3ccccc3n2)cc1)C1C=C2C=C(Br)C=CC2OC1=O (stereo not drawn),0.577 µM
16,CCOC(=O)c1ccc(NC(=O)c2cnc(N3CCOCC3)nc2)cc1,> 5 µM (inactive)
17,COc1ccc(C(=O)Nc2cc3c4c(c2)C(C)C(=O)N4CCC3)cc1 (stereo not drawn),> 50 µM (inactive)
18,O=C(/C=C/c1ccc(F)cc1)Nc1ccc2c(c1)OCCO2,> 50 µM (inactive)
19,COc1cc(NC(=O)c2cc(-c3ccncc3)n(-c3ccc(F)cc3)n2)cc(OC)c1,> 50 µM (inactive)
20,Cc1ccc(NC(=O)c2nnn(-c3ccccc3Br)c2C)cc1C,> 50 µM (inactive)
21,COc1ccc(NC(=O)c2[nH]nc3c2COc2ccccc2-3)c(OC)c1,5.5 µM
22,Cc1cccc(NC(=O)CSc2nnc(-c3n[nH]c4c3CCC4)n2N)c1,35.1 µM
23,COc1ccc(Cn2c(=O)[nH]c3cc(C(=O)NCCCN4CCN(c5cccc(Cl)c5)CC4)ccc3c2=O)cc1,3.03 µM
24,CCn1c(SCC(=O)c2c(N)n(CC(C)C)c(=O)n(C)c2=O)nnc1-c1ccccc1,16 µM
25,CC1CCN(S(=O)(=O)c2ccc3[nH]cc(C(=O)NCc4ccco4)c(=O)c3c2)CC1,> 50 µM (inactive)

row,Structure (SMILES),IC50
1,CC(C)c1nc2sc3c(N(CCO)CCO)ncnc3c2c2c1COC(C)(C)C2,> 50 µM (inactive)
2,Cc1cccc(NC(=O)CSc2ncnc3c2sc2nc(CC(C)C)c4c(c23)CCC4)c1,44.1 µM
3,Cc1cccc(COc2ccc(C3SCC(=O)Nc4n[nH]c(C)c43)cc2)c1 (stereo not drawn),20.6 µM
4,Cc1sc(NC(=O)CNc2ccccc2)nc1-c1ccc2c(c1)CCN2C(=O)C(C)C,> 50 µM (inactive)
5,CC1(C)Cc2c(c(-c3ccco3)nc3sc4c(SCCCc5ccccc5)ncnc4c23)CO1,34.4 µM
6,COc1ccc(NC(=O)CNC(=O)c2ccc3nc(-n4cccc4)sc3c2)cc1,3.15 µM
7,O=C(Nc1ccccc1)c1nc2c(s1)CCN(C(=O)c1ccccc1)CC2,> 50 µM (inactive)
8,COc1ccc(CNC(=O)c2[nH]nc3c2CCc2ccccc2-3)cc1,35.5 µM
9,COc1ccc(-n2ccc(=O)c(-c3nc(-c4ccccc4F)no3)n2)cc1OC,> 50 µM (inactive)
10,COc1cc(C)c2c(=O)c3c(oc2c1)C(=O)c1c(O)c(OC)cc(O)c1C3=O,0.609 µM
11,Cc1ccc2[nH]c3c(=O)n(CC4CCCO4)cnc3c2c1 (stereo not drawn),21.5 µM
12,COc1cccc(-n2cnc3cc(C(=O)NC4CC4)ccc3c2=O)c1,15 µM
13,Cc1sc2ncnc(OCc3ccc(F)cc3Cl)c2c1C,> 50 µM (inactive)
14,O=C(NCCCc1nc2ccccc2n1Cc1c(Cl)cccc1Cl)c1ccco1,36 µM
15,O=c1c2cnc3nc(-c4cccnc4)nn3c2ccn1CCc1ccccc1,> 50 µM (inactive)
16,CCOc1ccccc1C(=O)Oc1ccc2c(C)cc(=O)oc2c1,26.1 µM
17,c1ccc2c(c1)ccc1nnc(-c3ccc4c(c3)OCO4)n12,> 50 µM (inactive)
18,Cc1cc(N2CCN(c3ncccn3)CC2)nc2ccc(NC(=O)/C=C/c3ccccc3Cl)cc12,12.6 µM
19,CCc1ccc(OCc2nnc(SCC(=O)Nc3ccccc3OC)n2Cc2ccccc2)cc1,> 50 µM (inactive)
20,COCC(=O)Nc1cc(F)c2nc(N3CCOCC3)ccc2c1,33.8 µM
21,COc1ccc(CNC(=O)CCc2nc3sc4c(c3c(=O)[nH]2)CCCCC4)cc1,> 50 µM (inactive)
22,COCC(C)Nc1ncc(-c2cnccn2)c(-c2ccc(C)s2)n1 (stereo not drawn),> 50 µM (inactive)
23,CS(=O)(=O)N1CCCN(c2nc3cc(Cl)ccc3n3cccc23)CC1,> 50 µM (inactive)
24,CC(C)CCn1c(=O)c2ccccc2n2c(CCC(=O)NC3CCCCCC3)nnc12,> 50 µM (inactive)
25,O=C(NCc1ccncc1)C1CCN(c2cncnc2N2CCCCC2)CC1,> 50 µM (inactive)

row,Structure (SMILES),IC50
1,Cc1ccc2nc(CCc3ccc(NS(=O)(=O)c4cccc(Cl)c4C)cc3)[nH]c2c1,> 50 µM (inactive)
2,COc1ccc2c(c1)c(N1CCCC1=O)c(C(=O)NCc1cccc(OC)c1OC)n2C,> 50 µM (inactive)
3,Cc1ccc2nc(N3CCc4ccccc4C3)c3nncn3c2c1,> 50 µM (inactive)
4,Cc1ccc(NC(=O)Cn2c(Nc3cccc(C)c3)nc(C)cc2=O)cc1,42.1 µM
5,CCOc1ccc(CCNC(=O)c2cccc3c2C(=O)N(CCOC)C3)cc1OCC,> 50 µM (inactive)
6,O=C(Nc1ccc2c(c1)OCCO2)c1ccc(N2CCCCC2)nn1,> 50 µM (inactive)
7,Cc1ccc(Nc2nc(O)c(CC(=O)Nc3ccccc3C)s2)cc1C,18 µM
8,COC(=O)c1ccc(Cn2cnc3ccc(F)cc3c2=O)o1,> 50 µM (inactive)
9,Cc1ccccc1C(=O)OCCN1C(=O)c2cccc3c(N4CCCCC4)ccc(c23)C1=O,> 50 µM (inactive)
10,COc1cc2c(cc1NC(=O)c1ccc(-n3cnnn3)cc1)oc1ccccc12,0.691 µM
11,O=C(CN1C(=O)NC2(CCCCC2)C1=O)Nc1ccc([N+](=O)[O-])cc1,32.8 µM
12,O=C(Nc1ccc(Cl)cc1)Nc1cccn2ncnc12,21.7 µM
13,CC(C)NS(=O)(=O)c1ccc(OCC(=O)N2CCC(Cc3ccccc3)CC2)cc1,> 50 µM (inactive)
14,C=Cc1ccc(Cn2cccc(S(=O)(=O)N3CCCC3)c2=O)cc1,3.92 µM
15,CCCCCn1c(Sc2ccc(C)cc2)nc2c1c(=O)[nH]c(=O)n2C,16.3 µM
16,O=C(O)COc1ccccc1/C=C1\CCc2c1nc1ccccc1c2C(=O)O,> 50 µM (inactive)
17,CC(C)(C)c1ccc(Cn2nnc3c(=O)[nH]c(C4CCN(S(=O)(=O)c5ccc(S(=O)(=O)NC6CC6)cc5)CC4)nc32)cc1,39.3 µM
18,O=C(c1cc(-c2ccncc2)n[nH]1)N1CCC(C(=O)N2CC=C(c3ccccc3)CC2)CC1,28.1 µM
19,CC(=O)c1ccc(NC(=O)c2ccc(N3CCCCS3(=O)=O)cc2Cl)cc1,30.6 µM
20,CC(C)c1ccc(NC(=O)c2cc3ncc(Br)cn3n2)cc1,1.73 µM
21,Cc1cc(/C=C2/C(=N)N3C(c4ccccc4)=CSC3=NC2=O)c(C)n1-c1ccc(F)cc1,> 50 µM (inactive)
22,CCc1ccccc1NC(=O)COc1ccccc1-c1nnc(-c2ccccc2)o1,25 µM
23,O=C(NCc1ccc2c(c1)OCO2)c1[nH]nc2c1COc1ccccc1-2,1.84 µM
24,Cc1ccc(NC(=O)Cn2c(-n3nc(C)cc3C)nc3c(c2=O)CCCC3)c(C)c1,32.6 µM
25,Cc1ccc(-c2nc(Cn3nnc(-c4nc(-c5ccccn5)no4)c3C)c(C)o2)cc1,> 50 µM (inactive)

row,Structure (SMILES),IC50
1,O=C(COc1ccc(Cl)cc1Cl)Nc1ccccc1-c1nc2ccccc2[nH]1,2.12 µM
2,COc1cnc(-c2ccccn2)nc1Sc1ccc(C)cc1,> 50 µM (inactive)
3,CSc1cccc(NC(=O)COc2cccc3ccccc23)c1,2.04 µM
4,COc1ccc(-c2nc3n(n2)C(CC(=O)Nc2cccc4ccccc24)C(=O)N3)cc1 (stereo not drawn),8.65 µM
5,C/C1=C\CCC(C)C(O)CC(O)C(C)C(O)CCC(C)C(O)CC2(O)OC(CC(OC(=O)CC(=O)O)CC(O)CC(O)CC(O)C(C)C(O)/C=C/C(C)C(C(C)CCCCCCCCN=C(N)N)OC1=O)CC(O)C2O (stereo not drawn),> 50 µM (inactive)
6,COc1ccc(-c2[nH]c3ccccc3c2SCCNC(=O)c2ccc(S(=O)(=O)N3CCOCC3)cc2)cc1,37.4 µM
7,CCCNC(=O)c1ccn(-c2ccc3ccc(-c4cnn(C)c4)cn23)n1,> 50 µM (inactive)
8,COc1cccc(NC(=O)CCc2c(C)nn(-c3cc(N4CCCCC4)ncn3)c2C)c1,> 50 µM (inactive)
9,CCn1c(CN2CCCC(c3nc(-c4cccnc4)n[nH]3)C2)nc2ccccc21 (stereo not drawn),> 50 µM (inactive)
10,Cn1c(-c2nnc(SCC(=O)Nc3ccccc3F)o2)cc2ccccc21,21.3 µM
11,Cc1ccc2c(c1)[C@]1(C(=O)N2)[C@@H]2C(=O)N(c3cccc(C(F)(F)F)c3)C(=O)[C@@H]2C2CCCN21 (stereo partly drawn),> 50 µM (inactive)
12,Cc1cc2c(cc1C)NC(CC(=O)Nc1ccc(O)cc1)C(=O)N2 (stereo not drawn),24.1 µM
13,CN[C@H]1CC2(CCN(C(=O)CCCn3cccn3)CC2)OC[C@]1(C)O,> 50 µM (inactive)
14,O=[N+]([O-])c1cccc(CSc2nnc(/C=C/c3ccccc3)o2)c1,> 50 µM (inactive)
15,Cc1noc(C)c1CN1CC[C@H]2O[C@H](C(=O)NCc3ccco3)CC[C@H]21,> 50 µM (inactive)
16,CCOC(=O)c1cccc(NC(=O)Nc2cccn3nc(C)nc23)c1,> 50 µM (inactive)
17,O=C(NCc1ccc(-c2nc3cnccc3o2)cc1)c1ccccc1Br,38.6 µM
18,O=C(CN1C(=O)COc2ccc(Cl)cc21)Nc1cccc2ncccc12,> 50 µM (inactive)
19,COc1ccc(CCNC(=O)c2cc3ccccc3s2)cc1OC,> 50 µM (inactive)
20,Cn1c(=O)c(C(=O)CN2CCN(c3ccc(O)cc3)CC2)c(N)n(Cc2ccccc2)c1=O,39.5 µM
21,NS(=O)(=O)c1cc(C(=O)OCC(=O)NC2CCCc3ccccc32)ccc1Cl (stereo not drawn),47.4 µM
22,N#Cc1ccc(COC(=O)c2ccc3ccccc3n2)cc1,> 50 µM (inactive)
23,COc1cccc(C(=O)Oc2ccc3c(=O)c(-c4ccc(OC)c(OC)c4)coc3c2)c1,0.167 µM
